In ChEMBL document CHEMBL1201862, “PubChem BioAssay data set” (2004):
Where a name gives a salt, the structure may show the parent alone. The source made the active and inactive calls.

Experiments:
[1] = non-specific 3'UTR reporter inhibition in Clone20-Shn3RL – cell-based, Renilla luciferase, cherry-picked, counter-screen for Shn3 inhibitor project, dose response (AID 624133); format: functional
[2] = reduction of Shn3 3'UTR-driven luciferase in osteoblasts – cell-based, Clone20 osteoblasts, firefly luciferase, cherry-picked, dose response (AID 624132); format: functional;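 note: firefly luciferase luminescence from reporter carrying the Shn3 3'UTR in osteoblasts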
[3] = target: T1, Histone-lysine N-methyltransferase NSD2 (Homo sapiens, UniProt O96028); format: biochemical
T1 sequence (O96028 whole entry): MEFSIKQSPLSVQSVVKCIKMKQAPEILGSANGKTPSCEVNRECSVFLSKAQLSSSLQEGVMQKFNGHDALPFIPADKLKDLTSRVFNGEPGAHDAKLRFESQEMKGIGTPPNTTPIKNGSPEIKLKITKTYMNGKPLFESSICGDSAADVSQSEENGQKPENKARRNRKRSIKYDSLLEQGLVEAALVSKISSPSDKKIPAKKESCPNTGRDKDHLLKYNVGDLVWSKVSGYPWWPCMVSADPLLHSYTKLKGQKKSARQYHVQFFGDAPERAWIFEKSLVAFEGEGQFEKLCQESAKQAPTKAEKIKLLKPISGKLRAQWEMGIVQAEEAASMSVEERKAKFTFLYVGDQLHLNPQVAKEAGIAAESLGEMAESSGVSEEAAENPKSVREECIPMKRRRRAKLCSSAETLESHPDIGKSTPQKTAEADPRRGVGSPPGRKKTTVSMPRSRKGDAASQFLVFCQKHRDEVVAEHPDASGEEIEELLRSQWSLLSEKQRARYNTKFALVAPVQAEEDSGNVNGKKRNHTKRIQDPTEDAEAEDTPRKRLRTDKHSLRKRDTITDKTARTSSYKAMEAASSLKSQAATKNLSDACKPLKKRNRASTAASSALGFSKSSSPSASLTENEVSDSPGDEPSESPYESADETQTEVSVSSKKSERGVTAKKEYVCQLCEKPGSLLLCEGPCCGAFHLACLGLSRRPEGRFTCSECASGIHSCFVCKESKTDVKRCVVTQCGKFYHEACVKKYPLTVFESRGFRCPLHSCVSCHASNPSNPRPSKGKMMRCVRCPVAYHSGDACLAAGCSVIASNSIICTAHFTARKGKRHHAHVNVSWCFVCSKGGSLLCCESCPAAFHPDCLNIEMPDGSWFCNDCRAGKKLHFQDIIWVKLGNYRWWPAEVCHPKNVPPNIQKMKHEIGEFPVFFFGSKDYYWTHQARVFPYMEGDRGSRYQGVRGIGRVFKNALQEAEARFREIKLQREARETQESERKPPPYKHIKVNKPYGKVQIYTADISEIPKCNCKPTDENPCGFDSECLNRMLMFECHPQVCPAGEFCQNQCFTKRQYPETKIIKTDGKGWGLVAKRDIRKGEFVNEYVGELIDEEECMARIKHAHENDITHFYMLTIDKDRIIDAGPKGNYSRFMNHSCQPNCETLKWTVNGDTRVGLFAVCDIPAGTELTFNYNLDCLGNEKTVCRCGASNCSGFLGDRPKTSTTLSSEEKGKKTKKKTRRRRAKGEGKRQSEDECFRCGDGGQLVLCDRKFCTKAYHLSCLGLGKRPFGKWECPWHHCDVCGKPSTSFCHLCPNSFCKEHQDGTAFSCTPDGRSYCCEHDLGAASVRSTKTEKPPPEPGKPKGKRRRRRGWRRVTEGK

[4] = viability of HCT116 lacking mutant beta-catenin – cell-based, human colon tumor, dose response (AID 1045); format: functional;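 note: HCT116 colon tumor cells with beta catenin knocked out; cells exposed to compound for 60 hours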
[5] = Luminescence Cell-Based Dose Response HTS to Identify Inhibitors of 5'UTR Stem-Loop Driven Prion Protein mRNA Translation in H4 Neuroglioblastoma Cells. [Related pubchem assays: 1827 (Project Summary), 1813 (Primary HTS)]; format: functional
[6] = alpha-synuclein stem-loop luciferase translation blockers – H4 neuroglioma cells, luminescence, confirmation (AID 1988); format: functional, cell-based
[7] = target: T2, Ubiquitin-conjugating enzyme E2 N (Homo sapiens, UniProt P61088); format: functional;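 note: Dose-response confirmation in a TR-FRET assay detecting UBC13-driven polyubiquitin chain formation, inhibition measured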
T2 sequence (P61088 whole entry): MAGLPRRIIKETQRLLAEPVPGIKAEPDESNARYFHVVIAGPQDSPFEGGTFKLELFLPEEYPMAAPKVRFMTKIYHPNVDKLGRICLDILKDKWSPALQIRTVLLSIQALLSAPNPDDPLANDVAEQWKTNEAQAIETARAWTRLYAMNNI

[8] = viability of PTEN-deleted HCT116 cells – cell-based, HCT116 PTEN knockout, dose response (AID 1047); format: functional;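 note: HCT116 colon tumor cells with PTEN knocked out; cells exposed to compound for 60 hours before readout; potency for loss of cell viability measured by luminescence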
[9] = luciferase reporter signal suppression in cells – H4 neuroglioma cells, luminescence, dose response (AID 1990); format: functional, cell-based
[10] = loss of viability in HepG2 cells – cell-based, CellTiter-Glo, cherry-picked, cytotoxicity control for Shn3 inhibitor project, dose response (AID 624134); format: functional
[11] = target: Luciferin 4-monooxygenase (Photinus pyralis, UniProt P08659); test: Counter Screen for Luciferase-based Assay Positives. [Related pubchem assays: 620, 618, 411 ]
[12] = system: HT-1080; test: HT1080 cell viability loss – fluorescence readout (AID 620); format: functional, cell-based; conditions: Homo sapiens
[13] = target: Genome polyprotein (dengue virus type 2, UniProt P29990); test: flavivirus cap methylation enzyme inhibition – biochemical, confirmation dose response, primary screen (AID 588689); format: functional
[14] = target: T3, Heat shock factor protein 1 (Mus musculus, UniProt P38532); test: enhancement of HSF1-driven luciferase signal – cell-based, NIH3T3, luminescence, dose retest, confirmation (AID 435004); format: functional;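 note: stress induced by proteasome inhibitor MG132 added 30 min after compound; luciferase reporter driven by HSF1 response element in NIH3T3 cells; actives raise luminescence as potentiators of the MG132 stress response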
T3 sequence (P38532 whole entry): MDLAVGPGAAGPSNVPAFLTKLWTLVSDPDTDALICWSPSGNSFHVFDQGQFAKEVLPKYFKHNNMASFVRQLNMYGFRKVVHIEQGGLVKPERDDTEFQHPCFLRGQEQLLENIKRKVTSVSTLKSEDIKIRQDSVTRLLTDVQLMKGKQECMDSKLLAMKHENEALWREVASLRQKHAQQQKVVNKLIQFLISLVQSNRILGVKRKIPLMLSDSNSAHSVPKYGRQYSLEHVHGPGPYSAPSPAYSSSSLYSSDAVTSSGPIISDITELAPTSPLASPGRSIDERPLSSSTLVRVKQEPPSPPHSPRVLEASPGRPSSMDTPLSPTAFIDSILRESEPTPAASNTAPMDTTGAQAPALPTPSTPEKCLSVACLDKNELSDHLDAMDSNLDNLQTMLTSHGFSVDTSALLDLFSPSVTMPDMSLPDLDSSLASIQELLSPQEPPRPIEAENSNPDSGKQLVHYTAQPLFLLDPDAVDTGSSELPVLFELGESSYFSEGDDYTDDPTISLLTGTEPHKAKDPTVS

[15] = target: T4, Long-chain-fatty-acid--AMP ligase FadD28 (Mycobacterium tuberculosis, UniProt P9WQ59); test: Fluorescence polarization aasay to screen for inhibitors that compete for the binding of FadD28 to a bisubstrate Measured in Biochemical System Using Plate Reader - 2147-01_Inhibitor_Dose_CherryPick_Activity.; format: functional, Mycobacterium tuberculosis H37Rv
T4 sequence (P9WQ59 whole entry): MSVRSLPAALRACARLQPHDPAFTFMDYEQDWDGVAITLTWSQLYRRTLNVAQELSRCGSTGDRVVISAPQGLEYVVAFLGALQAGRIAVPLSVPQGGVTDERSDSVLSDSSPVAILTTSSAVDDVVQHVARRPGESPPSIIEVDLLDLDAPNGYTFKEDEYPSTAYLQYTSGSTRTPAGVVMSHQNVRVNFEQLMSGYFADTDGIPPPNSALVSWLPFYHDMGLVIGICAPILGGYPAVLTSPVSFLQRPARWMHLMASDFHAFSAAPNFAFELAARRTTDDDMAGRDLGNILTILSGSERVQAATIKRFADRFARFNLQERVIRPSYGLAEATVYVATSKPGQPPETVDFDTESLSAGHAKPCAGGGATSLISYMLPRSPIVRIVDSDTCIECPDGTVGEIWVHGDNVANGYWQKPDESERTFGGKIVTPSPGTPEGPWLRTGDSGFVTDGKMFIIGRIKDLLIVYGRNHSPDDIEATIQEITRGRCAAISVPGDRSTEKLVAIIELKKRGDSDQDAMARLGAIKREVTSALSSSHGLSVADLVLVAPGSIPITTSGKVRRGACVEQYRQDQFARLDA

[16] = target: T5, Leucine aminopeptidase (Plasmodium falciparum 3D7, UniProt Q8IL11); test: P. falciparum M17LAP inhibitors, primary screen, biochemical, fluorogenic H-Leu-NHMec substrate, 1536-well (AID 1619); format: functional
T5 sequence (Q8IL11 whole entry): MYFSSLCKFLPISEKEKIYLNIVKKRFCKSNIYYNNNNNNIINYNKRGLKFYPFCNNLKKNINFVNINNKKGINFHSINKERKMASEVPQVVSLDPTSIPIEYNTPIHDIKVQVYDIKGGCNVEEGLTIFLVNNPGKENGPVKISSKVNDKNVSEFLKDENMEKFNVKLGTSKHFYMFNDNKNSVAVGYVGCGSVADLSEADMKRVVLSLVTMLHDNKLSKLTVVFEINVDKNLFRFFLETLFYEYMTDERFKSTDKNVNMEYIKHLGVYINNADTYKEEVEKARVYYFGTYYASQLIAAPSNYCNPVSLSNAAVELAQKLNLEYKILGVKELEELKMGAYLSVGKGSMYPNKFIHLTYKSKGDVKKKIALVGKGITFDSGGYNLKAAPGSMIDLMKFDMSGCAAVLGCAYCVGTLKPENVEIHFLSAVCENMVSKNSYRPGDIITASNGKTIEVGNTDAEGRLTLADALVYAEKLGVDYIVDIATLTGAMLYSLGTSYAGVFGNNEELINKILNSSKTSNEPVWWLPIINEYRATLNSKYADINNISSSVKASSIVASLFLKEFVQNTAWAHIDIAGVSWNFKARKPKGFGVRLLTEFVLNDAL

[17] = viability loss in THP-1 monocytes – THP-1 cells, cytotoxicity control for Vif-APOBEC3G degradation inhibitor project, dose response (AID 1117359); format: functional; conditions: THP-1
[18] = target: Induced myeloid leukemia cell differentiation protein Mcl-1 (Homo sapiens, UniProt Q07820); format: functional
[19] = cells
[20] = NIH3T3 cell viability loss – ATP luminescence, mouse fibroblasts, counter-screen, dose response (AID 2010); format: functional, cell-based;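 note: cells exposed to compound for about 90 hours before reading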
[21] = target: FAD-linked sulfhydryl oxidase ALR (Homo sapiens, UniProt P55789); test: ALR-catalysed DTT oxidation blockers – biochemical, H2O2 detection, luminescence, cherry-pick, dose response (AID 493248)
[22] = Trypanosoma cruzi growth suppression in host cells – NIH3T3 host cells, beta-gal luminescence, confirmation (AID 2044); format: functional, cell-based;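 note: intracellular parasites grown in NIH/3T3 mouse fibroblasts as host cells; luminescent beta-galactosidase reporter signal from transgenic T. cruzi replicating inside host cells; inhibitors lower the luminescence signal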
[23] = target: T6, Trace amine-associated receptor 1 (Homo sapiens, UniProt Q96RJ0); test: Counterscreen for agonists of the human trace amine associated receptor 1 (hTAAR1): Fluorescence-based cell-based high throughput dose response assay to identify hTAAR1 agonist that also desensitize TAAR1 receptor response.; format: functional
T6 sequence (Q96RJ0 whole entry): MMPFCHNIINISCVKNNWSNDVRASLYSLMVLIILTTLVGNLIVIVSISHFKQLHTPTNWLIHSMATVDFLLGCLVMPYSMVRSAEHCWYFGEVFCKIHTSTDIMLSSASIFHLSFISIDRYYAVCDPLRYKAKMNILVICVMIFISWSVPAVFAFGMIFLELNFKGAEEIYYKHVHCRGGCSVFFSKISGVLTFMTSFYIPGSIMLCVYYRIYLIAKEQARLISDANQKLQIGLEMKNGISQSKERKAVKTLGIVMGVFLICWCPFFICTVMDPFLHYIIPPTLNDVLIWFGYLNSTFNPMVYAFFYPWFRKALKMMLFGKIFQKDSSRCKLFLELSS

[24] = target: T6, Trace amine-associated receptor 1; test: Fluorescence-based cell-based high throughput dose response assay to identify agonists of the human trace amine associated receptor 1 (TAAR1).; format: functional

Chain of Induced myeloid leukemia cell differentiation protein Mcl-1 (Q07820 whole entry): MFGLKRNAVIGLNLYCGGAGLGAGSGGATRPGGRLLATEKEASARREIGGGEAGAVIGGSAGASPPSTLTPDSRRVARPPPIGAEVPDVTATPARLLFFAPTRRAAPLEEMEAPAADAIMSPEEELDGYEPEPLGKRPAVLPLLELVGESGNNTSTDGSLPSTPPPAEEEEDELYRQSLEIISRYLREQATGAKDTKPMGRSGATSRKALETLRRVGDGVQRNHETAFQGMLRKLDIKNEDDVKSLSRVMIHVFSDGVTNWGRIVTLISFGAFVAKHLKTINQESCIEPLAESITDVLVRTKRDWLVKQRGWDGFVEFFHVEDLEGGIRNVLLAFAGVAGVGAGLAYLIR
Chain of FAD-linked sulfhydryl oxidase ALR (P55789 whole entry): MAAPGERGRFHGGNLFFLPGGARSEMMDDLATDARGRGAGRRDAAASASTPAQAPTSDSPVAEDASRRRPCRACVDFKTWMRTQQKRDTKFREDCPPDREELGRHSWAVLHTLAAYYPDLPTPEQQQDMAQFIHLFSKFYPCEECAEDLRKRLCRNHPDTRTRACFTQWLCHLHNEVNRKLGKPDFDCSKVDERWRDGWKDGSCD
Chain of Genome polyprotein (P29990 2492-3391 limits assumed): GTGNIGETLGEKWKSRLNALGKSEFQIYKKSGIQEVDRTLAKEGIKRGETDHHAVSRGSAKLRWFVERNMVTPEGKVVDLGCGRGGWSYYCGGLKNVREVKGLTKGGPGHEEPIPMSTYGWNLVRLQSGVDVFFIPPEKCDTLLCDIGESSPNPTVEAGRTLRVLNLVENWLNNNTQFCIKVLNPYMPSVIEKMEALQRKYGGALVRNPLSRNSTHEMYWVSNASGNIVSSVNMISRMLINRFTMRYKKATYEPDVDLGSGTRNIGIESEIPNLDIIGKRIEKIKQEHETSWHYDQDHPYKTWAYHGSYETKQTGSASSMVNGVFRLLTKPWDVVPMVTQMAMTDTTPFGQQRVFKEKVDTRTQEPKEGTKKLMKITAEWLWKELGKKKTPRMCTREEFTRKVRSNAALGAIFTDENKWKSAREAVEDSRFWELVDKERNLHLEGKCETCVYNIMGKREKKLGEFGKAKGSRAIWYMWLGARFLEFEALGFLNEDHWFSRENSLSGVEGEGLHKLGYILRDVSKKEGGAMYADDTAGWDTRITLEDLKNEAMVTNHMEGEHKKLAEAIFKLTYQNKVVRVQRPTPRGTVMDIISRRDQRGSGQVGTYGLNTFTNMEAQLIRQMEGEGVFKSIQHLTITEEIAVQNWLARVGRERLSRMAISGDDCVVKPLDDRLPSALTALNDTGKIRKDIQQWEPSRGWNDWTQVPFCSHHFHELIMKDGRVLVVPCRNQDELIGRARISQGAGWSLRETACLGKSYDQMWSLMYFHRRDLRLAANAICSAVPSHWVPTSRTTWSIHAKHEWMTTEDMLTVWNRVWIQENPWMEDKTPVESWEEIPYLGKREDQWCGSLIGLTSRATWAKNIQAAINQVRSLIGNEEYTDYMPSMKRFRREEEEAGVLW
Chain of Luciferin 4-monooxygenase (P08659 whole entry): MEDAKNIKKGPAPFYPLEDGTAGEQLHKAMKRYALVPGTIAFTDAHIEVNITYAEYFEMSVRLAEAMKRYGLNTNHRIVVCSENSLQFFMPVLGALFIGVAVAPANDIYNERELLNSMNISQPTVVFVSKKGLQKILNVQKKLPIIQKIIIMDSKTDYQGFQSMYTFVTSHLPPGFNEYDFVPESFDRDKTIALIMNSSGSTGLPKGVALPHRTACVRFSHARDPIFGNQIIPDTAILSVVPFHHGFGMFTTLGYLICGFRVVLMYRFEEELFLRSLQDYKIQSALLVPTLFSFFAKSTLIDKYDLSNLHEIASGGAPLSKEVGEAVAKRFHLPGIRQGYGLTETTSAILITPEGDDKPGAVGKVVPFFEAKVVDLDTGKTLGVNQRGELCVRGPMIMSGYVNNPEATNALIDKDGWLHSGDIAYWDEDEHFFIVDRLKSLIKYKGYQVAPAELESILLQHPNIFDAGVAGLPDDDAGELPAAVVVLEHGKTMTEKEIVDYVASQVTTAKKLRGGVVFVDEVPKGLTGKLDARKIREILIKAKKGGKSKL

## CCCCCCCSc1cc(OC)c(CCNC)cc1OC
[1]
  AC50: 10.5 µM (active)
[2]
  AC50: 10.6 µM (active)
[3]
  AC50: 17.5 µM (active)
[4]
  EC50: 8.71 µM (active)
[5]
  EC50: > 120 µM (not active)
[6]
  EC50: 11.9 µM (active)
[7]
  IC50: > 20 µM (inactive)
[8]
  EC50: 9.72 µM (active)
[9]
  EC50: > 120 µM (not active)
[10]
  AC50: 8.47 µM (active)

## O=C(CCCOc1ccccc1)N1CCCCC1
[5]
  EC50: 8.9 µM (active)
[6]
  EC50: 8.68 µM (active)
[11]
  EC50: < 0.2 µM (active)
[12]
  EC50: > 50 µM (not active)

## Cc1cccc(NC(=O)CSc2nnc(-c3ccco3)c(-c3ccco3)n2)c1C
[13]
  IC50: 96.3 µM (active)
[14]
  EC50: > 260 µM (inactive)
[15]
  AC50: > 100 µM (inactive)
[16]
  IC50: 20.6 µM (active)
[17]
  CC50: > 40 µM (active)
[18]
  IC50: 5.98 µM (active)

## CCN(CCNC(=O)C1CCCN(Cc2nc(-c3ccc(OC)cc3)oc2C)C1)c1ccccc1 (centres undefined)
[19]
  EC50: 0.383 µM (active)
[20]
  EC50: 7.96 µM (active)
[21]
  AC50: 0.01 µM (active)
[22]
  EC50: < 0.1 µM (active)

## CC(=O)n1cc([C@H]2C=C(C(=O)N3CCN(Cc4ccc5c(c4)OCO5)CC3)O[C@@H](OCc3ccc(CO)cc3)C2)c2ccccc21
[19]
  EC50: 0.197 µM (active)
[20]
  EC50: > 30 µM (not active)
[22]
  EC50: < 0.1 µM (active)

## c1ccc(CN(CC2=NCCN2)c2ccccc2)cc1 [ANTAZOLINE HYDROCHLORIDE]
[23]
  IC50: > 29.9 µM (inactive)
[24]
  EC50: 4.31 µM (active)
